Entries after “also recorded” stand apart in the source; their conditions may differ. Like-named read-outs stand apart in the source and are kept apart here.
How the values were obtained:
[1] = test system: HIV-1; assay: Release of HIV-1 from transfected 293T cells, p24 in media; format: cell-based; conditions: 293T cells transfected with pR9-HIV-1Ba-L, read-out: EC50, inhibition of HIV-1 release
Procedure: Effect of Ilaprazole on release of HIV-1 in vitro. To establish the broad-spectrum potential of ilaprazole, we tested whether ilaprazole would inhibit the release of HIV-1 from 293T cells. To this end, cells were transfected with pR9-HIV-1Ba-L plasmid and release of virus into the media fraction was detected by monitoring the capsid (CA) protein (p24) via enzyme linked immunosorbent assay analysis. The drug was tested at concentrations between 0 and 40 μM and the effect of the drug on release of virus assessed (Table 4, shown in FIG. 8, column 2). Ilaprazole was effective at inhibiting the release of HIV-1 from cells with a calculated EC50 of 1 μM or less as described in Materials and Methods.
HIV-1 transfection of 293T cells. 293T cells (American Type Culture Collection) were grown in a 24-well Clear Flat Bottom TC-treated Multiwell Cell Culture Plate using Dulbecco's modified Eagle's medium (Cellgro) containing fetal bovine serum (10%), 100 U/ml penicillin, 100 μg/ml streptomycin, and 292 μg/ml 1-glutamine (Cellgro). […] Virus released from cells was quantified by media-associated p24 determined using fluorescently tagged CA targeting antibody (PerkinElmer) and equivalent amounts of p24 as standards.
Drug potency and cell toxicity. EC50 calculations were determined by using AAT Bioquest's EC50 calculator. […]

[2] = target: T1, MEK4 (Homo sapiens, UniProt P45985); assay: FTS assay against unrelated protein MEK4; format: binding
T1 sequence (P45985 1-399): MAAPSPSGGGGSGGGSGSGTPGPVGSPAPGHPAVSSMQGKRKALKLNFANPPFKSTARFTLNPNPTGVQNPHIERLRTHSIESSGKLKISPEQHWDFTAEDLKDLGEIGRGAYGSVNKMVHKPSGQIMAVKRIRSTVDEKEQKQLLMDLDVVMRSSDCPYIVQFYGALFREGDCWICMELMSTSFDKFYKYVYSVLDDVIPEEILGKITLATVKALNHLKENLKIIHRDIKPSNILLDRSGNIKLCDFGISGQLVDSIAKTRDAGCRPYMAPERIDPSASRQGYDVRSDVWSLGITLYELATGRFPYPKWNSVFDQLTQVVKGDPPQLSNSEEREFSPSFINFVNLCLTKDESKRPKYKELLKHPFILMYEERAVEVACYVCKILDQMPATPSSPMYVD
Text: FIG. 1. Thermal shift data of Tsg101 by lead compound Tenatoprazole (N16). […] (B) Thermal shift data of three human proteins, DHPH, ENO1, and MEK4 not related to Tsg101 by lead compound tenatoprazole. […] (C) The addition of DTT abolishes the Tm shift in the FTS assay, consistent with prazole compounds forming a disulfide bond to Tsg101. Rabe: Rabeprazole, Ila: Ilaprazole, Tenato: tenatoprazole, Panto: pantoprazole, ref: reference.
This specific binding is consistent with a previous NMR structure in which tenatoprazole forms a covalent disulfide bond to Cys73 in the UEV domain of the protein (5). This disulfide bond formation can be prevented by including the reducing agent DTT in the assay (FIG. 1C). The addition of DTT abolished the Tsg101-UEV Tm shift caused by the prazoles. […]
Fluorescence thermal shift (FTS) screening to identify small molecule binding to Tsg101-UEV. […] Discovery of small molecule binding to target protein utilizes the observation that ligand binding affects protein thermal stability, and therefore can be detected through a shift in the protein's thermal denaturation (melting) temperature (Tm). […] A fluorescence dye Sypro-Orange (Invitrogen) was used for assay detection. The dye is excited at 473 nm and has a fluorescence emission at 610 nm. […] Fluorescence was detected on a real-time PCR machine CFX384 (Bio-Rad Laboratories).

Compound	EC50 [1] [µM]	EC50 ([1]; Human immunodeficiency virus 1, HEK-293T) [µM]	Effect on thermal stability (Tm shift) of MEK4 [2]
COc1ccnc(C[S+]([O-])c2nc3ccc(-n4cccc4)cc3[nH]2)c1C (stereo not drawn) [Ilaprazole, 2-[(4-methoxy-3-methylpyridin-2-yl)methylsulfinyl]-6-pyrrol-1-yl-1H-benzimidazole]	≤ 1	0.8 to 1.2	–
COc1ccc2[nH]c([S+]([O-])Cc3ncc(C)c(OC)c3C)nc2n1 (stereo not drawn) [Tenatoprazole]	–	–	negligible; also recorded: did not observe a Tm shift

— patent US11666562B2, “Ilaprazole for inhibiting the release of enveloped viruses from cells” (Northwestern University, priority 2020, dated 2023)
